≈ marks a conversion by molar mass, not a printed value. Where a SMILES comes first, the peptide text is derived from it.
Assays:
[1] = target: T1, BLV envelope (Bovine leukemia virus, UniProt P51519); test: Syncytium interference assay, BLV envelope-expressing HeLa effector cells; type: cell-based
T1 construct: A fragment encompassing the entire BLV envelope open reading frame; expressed in transfected cells; host or cells: HeLa (co-transfected with pRSV-Rev)
Procedure: (§1) Briefly, HeLa cells for use as effector cells were transfected with the envelope expression vector pHTE-1 or with equal amounts of pCMV-BLVenv-RRE and pRSV-Rev using the Genejuice™ transfection reagent (Novagen) in accordance with the manufacturer's instructions. 24 h later, 3 × 10^5 effector cells were added to 7 × 10^5 untransfected HeLa target cells in six-well dishes (Nunc). Where appropriate, the co-culture was incubated in the presence of peptides at the concentrations specified. To assess the ability of the peptides to inhibit fusion induced by virally expressed BLV envelope, 2 × 10^5 BLV-infected FLK cells were used as effectors and added to 8 × 10^5 uninfected HeLa cells. After incubation at 37°C for 16 h, cells were washed twice with PBS and fixed in PBS + 3% paraformaldehyde. Assays were performed in triplicate and the number of syncytia (defined as multinucleated cells with 4 or more nuclei) from 10 low-power fields (LPF) per replicate was scored by light microscopy; some assays were stained using Giemsa. A syncytium formation value of 100% is defined as the number of syncytia formed in the absence of peptide but in the presence of 1.5% DMSO.

[2] = Relative peptide solubility by laser nephelometry; type: physicochemical; details: filtered PBS with 1.5 % DMSO, maximum solubility in aqueous solution, two-fold serial dilution from DMSO stock, 200 μl, 1 hr at room temperature, laser nephelometry (forward scattered light, NEPHELOstar), duplicate wells, in solution if reading up to 3-fold the DMSO control
Procedure: A two-fold serial dilution of peptide in DMSO was performed, and added in duplicate to 96-well microplates. Filtered PBS was added to give a total volume of 200 μl and a final DMSO concentration of 1.5 % in all wells. The plates were incubated at room temperature for 1 hr and the relative solubility of peptides was established by measuring forward scattered light using a NEPHELOstar laser-based microplate nephelometer (BMG LABTECH). Wells containing PBS and 1.5 % DMSO only were used as blanks. Data analysis was carried out using ActivityBase, and peptides giving readings up to and including 3-fold higher than the average reading for the DMSO control were considered to be in solution at the concentrations specified.

[3] = system: virally expressed BLV envelope (BLV-infected FLK cells); details: chronically BLV infected FLK effector cells + HeLa target cells; result in words (Figure 3C)
Procedure: as §1

[4] = up to 20 μM, result in words (Figure 4D)
[5] = result in words, concentration not given (Figures 3B, 4A, 4C)

T1 sequence (P51519 302-515): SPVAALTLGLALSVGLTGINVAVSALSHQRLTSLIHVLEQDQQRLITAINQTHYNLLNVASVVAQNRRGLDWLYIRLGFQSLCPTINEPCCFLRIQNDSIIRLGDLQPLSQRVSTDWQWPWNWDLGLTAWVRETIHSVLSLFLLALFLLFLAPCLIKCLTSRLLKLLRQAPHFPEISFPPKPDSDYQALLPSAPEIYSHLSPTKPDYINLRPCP

| Compound | solubility kinetic at 1 h [2] [µM] | Inhibition of BLV Env-induced membrane fusion [1, 5] | further results |
| --- | --- | --- | --- |
| CC[C@H](C)[C@H](NC(=O)[C@H](CCCNC(=N)N)NC(=O)[C@H](CC(C)C)NC(C)=O)C(=O)N[C@@H](CCC(N)=O)C(=O)N[C@@H](CC(N)=O)C(=O)N[C@@H](CC(=O)O)C(=O)N[C@@H](CO)C(=O)N[C@H](C(=O)N[C@H](C(=O)N[C@@H](CCCNC(=N)N)C(=O)N[C@@H](CC(C)C)C(=O)NCC(=O)N[C@@H](CC(=O)O)C(=O)N[C@@H](CC(C)C)C(=O)N[C@@H](CCC(N)=O)C(=O)N1CCC[C@H]1C(=O)N[C@@H](CC(C)C)C(=O)N[C@@H](CO)C(=O)N[C@@H](CCC(N)=O)C(=O)N[C@@H](CCCNC(=N)N)C(=O)N[C@H](C(=O)N[C@@H](CO)C(=O)N[C@H](C(=O)N[C@@H](CC(=O)O)C(=O)N[C@@H](Cc1c[nH]c2ccccc12)C(=O)N[C@@H](CCC(N)=O)C(N)=O)[C@@H](C)O)C(C)C)[C@@H](C)CC)[C@@H](C)CC [P^BLV-ΔCCF] (Ac-LRIQNDSIIRLGDLQPLSQRVSTDWQ-NH2) | 11.2 (≈ 34.8 µg/mL) | – | inhibition at 30 µM ([1]; HeLa, read-out: Inhibition of syncytium formation): 40%; Inhibition of BLV Env-induced membrane fusion ([1]; peptide concentrations below 11 μM, where the peptide is soluble, result in words): fails to inhibit membrane fusion |
| CC[C@H](C)[C@H](NC(=O)[C@H](CCCNC(=N)N)NC(=O)[C@H](C)NC(=O)[C@H](Cc1ccccc1)NC(=O)[C@H](CS)NC(=O)[C@H](CS)NC(C)=O)C(=O)N[C@@H](CCC(N)=O)C(=O)N[C@@H](CC(N)=O)C(=O)N[C@@H](CC(=O)O)C(=O)N[C@@H](CO)C(=O)N[C@H](C(=O)N[C@H](C(=O)N[C@@H](CCCNC(=N)N)C(=O)N[C@@H](C)C(=O)NCC(=O)N[C@@H](CC(=O)O)C(=O)N[C@@H](C)C(=O)N[C@@H](CCC(N)=O)C(=O)N1CCC[C@H]1C(=O)N[C@@H](C)C(=O)N[C@@H](CO)C(=O)N[C@@H](CCC(N)=O)C(=O)N[C@@H](CCCNC(=N)N)C(=O)N[C@H](C(=O)N[C@@H](CO)C(=O)N[C@H](C(=O)N[C@@H](CC(=O)O)C(=O)N[C@@H](Cc1c[nH]c2ccccc12)C(=O)N[C@@H](CCC(N)=O)C(N)=O)[C@@H](C)O)C(C)C)[C@@H](C)CC)[C@@H](C)CC [P^BLV-L/A] (Ac-CCFARIQNDSIIRAGDAQPASQRVSTDWQ-NH2) | 45 (≈ 148 µg/mL) | – | Inhibition of BLV Env-induced membrane fusion [1, 4]: did not exhibit any discernible inhibition |
| CC[C@H](C)[C@H](NC(=O)[C@H](CC(C)C)NC(=O)[C@H](CO)NC(=O)[C@H](Cc1c[nH]cn1)NC(=O)[C@@H](NC(=O)[C@H](CC(C)C)NC(=O)[C@H](CC(C)C)NC(=O)[C@H](CO)NC(=O)[C@@H](NC(=O)[C@H](Cc1ccc(O)cc1)NC(=O)[C@H](CC(N)=O)NC(=O)[C@H](CC(N)=O)NC(=O)[C@@H](NC(=O)[C@H](CCC(=O)O)NC(=O)[C@H](CCCNC(=N)N)NC(=O)[C@H](CC(=O)O)NC(=O)[C@H](Cc1c[nH]c2ccccc12)NC(=O)[C@H](CCC(=O)O)NC(=O)[C@H](CCSC)NC(=O)[C@H](Cc1c[nH]c2ccccc12)NC(=O)CNC(C)=O)[C@@H](C)CC)[C@@H](C)O)[C@@H](C)CC)C(=O)N[C@@H](CCC(=O)O)C(=O)N[C@@H](CCC(=O)O)C(=O)N[C@@H](CO)C(=O)N[C@@H](CCC(N)=O)C(=O)N[C@@H](CC(N)=O)C(=O)N[C@@H](CCC(N)=O)C(=O)N[C@@H](CCC(N)=O)C(=O)N[C@@H](CCC(=O)O)C(=O)N[C@@H](CCCCN)C(=O)N[C@@H](CC(N)=O)C(=O)N[C@@H](CCC(=O)O)C(=O)N[C@@H](CCC(N)=O)C(=O)N[C@@H](CCC(=O)O)C(=O)N[C@@H](CC(C)C)C(=O)N[C@@H](CC(C)C)C(N)=O [Peptide C34, reference compound] (Ac-GWMEWDREINNYTSLLIHSLIEESQNQQEKNEQELL-NH2) | > 90 | did not interfere | – |
| CC[C@H](C)[C@H](NC(=O)[C@H](CCCNC(=N)N)NC(=O)[C@H](CC(C)C)NC(=O)[C@H](Cc1ccccc1)NC(=O)[C@H](CS)NC(=O)[C@H](CS)NC(C)=O)C(=O)N[C@@H](CCC(N)=O)C(=O)N[C@@H](CC(N)=O)C(=O)N[C@@H](CC(=O)O)C(=O)N[C@@H](CO)C(=O)N[C@H](C(=O)N[C@H](C(=O)N[C@@H](CCCNC(=N)N)C(=O)N[C@@H](C)C(=O)NCC(=O)N[C@@H](CC(=O)O)C(=O)N[C@@H](CC(C)C)C(=O)N[C@@H](CCC(N)=O)C(=O)N1CCC[C@H]1C(=O)N[C@@H](C)C(=O)N[C@@H](CO)C(=O)N[C@@H](CCC(N)=O)C(=O)N[C@@H](CCCNC(=N)N)C(=O)N[C@H](C(=O)N[C@@H](CO)C(=O)N[C@H](C(=O)N[C@@H](CC(=O)O)C(=O)N[C@@H](Cc1c[nH]c2ccccc12)C(=O)N[C@@H](CCC(N)=O)C(N)=O)[C@@H](C)O)C(C)C)[C@@H](C)CC)[C@@H](C)CC [P^BLV-L404/410A] (Ac-CCFLRIQNDSIIRAGDLQPASQRVSTDWQ-NH2) | > 90 | – | Inhibition of BLV Env-induced membrane fusion [1, 4]: failed to display any fusion-blocking activity |
| CC[C@H](C)[C@H](NC(=O)[C@H](CO)NC(=O)[C@@H](NC(=O)[C@H](Cc1c[nH]cn1)NC(=O)[C@H](CO)NC(=O)[C@H](CC(N)=O)NC(=O)[C@@H](NC(=O)[C@@H](NC(=O)[C@H](CC(N)=O)NC(=O)[C@H](CC(C)C)NC(=O)[C@H](Cc1ccccc1)NC(=O)[C@H](CS)NC(=O)[C@H](CS)NC(C)=O)[C@@H](C)CC)[C@@H](C)O)C(C)C)C(=O)N[C@@H](CC(C)C)C(=O)N[C@@H](CCC(N)=O)C(=O)N[C@@H](CCC(=O)O)C(=O)N[C@@H](CCCNC(=N)N)C(=O)N1CCC[C@H]1C(=O)N1CCC[C@H]1C(=O)N[C@@H](CC(C)C)C(=O)N[C@@H](CCC(=O)O)C(=O)N[C@@H](CC(N)=O)C(=O)N[C@@H](CCCNC(=N)N)C(=O)N[C@H](C(=O)N[C@@H](CC(C)C)C(=O)N[C@H](C(=O)NCC(=O)N[C@@H](Cc1c[nH]c2ccccc12)C(=O)NCC(=O)N[C@@H](CC(C)C)C(N)=O)[C@@H](C)O)C(C)C [P^cr-400, reference compound] (Ac-CCFLNITNSHVSILQERPPLENRVLTGWGL-NH2) | > 90 | – | Inhibition of membrane fusion induced by virally expressed BLV envelope [3]: did not block; Inhibition of membrane fusion induced by BLV envelope ([1]; concentrations up to 15 μM and above, result in words): failed to inhibit |
| CC[C@H](C)[C@H](NC(=O)[C@H](CO)NC(=O)[C@@H](NC(=O)[C@H](Cc1c[nH]cn1)NC(=O)[C@H](CO)NC(=O)[C@H](CC(N)=O)NC(=O)[C@@H](NC(=O)[C@@H](NC(=O)[C@H](CC(N)=O)NC(=O)[C@H](C)NC(=O)[C@H](Cc1ccccc1)NC(=O)[C@H](CS)NC(=O)[C@H](CS)NC(C)=O)[C@@H](C)CC)[C@@H](C)O)C(C)C)C(=O)N[C@@H](C)C(=O)N[C@@H](CCC(N)=O)C(=O)N[C@@H](CCC(=O)O)C(=O)N[C@@H](CCCNC(=N)N)C(=O)N1CCC[C@H]1C(=O)N1CCC[C@H]1C(=O)N[C@@H](C)C(=O)N[C@@H](CCC(=O)O)C(=O)N[C@@H](CC(N)=O)C(=O)N[C@@H](CCCNC(=N)N)C(=O)N[C@H](C(=O)N[C@@H](C)C(=O)N[C@H](C(=O)NCC(=O)N[C@@H](Cc1c[nH]c2ccccc12)C(=O)NCC(=O)N[C@@H](C)C(N)=O)[C@@H](C)O)C(C)C [P^cr-400 L/A, reference compound] (Ac-CCFANITNSHVSIAQERPPAENRVATGWGA-NH2) | 45 (≈ 146 µg/mL) | did not interfere | – |
| CC[C@H](C)[C@H](NC(=O)[C@H](CCCNC(=N)N)NC(=O)[C@H](CC(C)C)NC(=O)[C@H](Cc1ccccc1)NC(=O)[C@H](CS)NC(=O)[C@H](CS)NC(C)=O)C(=O)N[C@@H](CCC(N)=O)C(=O)N[C@@H](CC(N)=O)C(=O)N[C@@H](CC(=O)O)C(=O)N[C@@H](CO)C(=O)N[C@H](C(=O)N[C@H](C(=O)N[C@@H](CCCNC(=N)N)C(=O)N[C@@H](CC(C)C)C(=O)NCC(=O)N[C@@H](CC(=O)O)C(=O)N[C@@H](CC(C)C)C(=O)N[C@@H](CCC(N)=O)C(=O)N1CCC[C@H]1C(=O)N[C@@H](CC(C)C)C(N)=O)[C@@H](C)CC)[C@@H](C)CC [P^BLV-ΔC] (Ac-CCFLRIQNDSIIRLGDLQPL-NH2) | > 90 | lacked detectable inhibitory activity | – |
| CC[C@H](C)[C@H](NC(=O)[C@H](CO)NC(C)=O)C(=O)N[C@H](C(=O)N[C@@H](CCCNC(=N)N)C(=O)N[C@@H](CC(C)C)C(=O)NCC(=O)N[C@@H](CC(=O)O)C(=O)N[C@@H](CC(C)C)C(=O)N[C@@H](CCC(N)=O)C(=O)N1CCC[C@H]1C(=O)N[C@@H](CC(C)C)C(=O)N[C@@H](CO)C(=O)N[C@@H](CCC(N)=O)C(=O)N[C@@H](CCCNC(=N)N)C(=O)N[C@H](C(=O)N[C@@H](CO)C(=O)N[C@H](C(=O)N[C@@H](CC(=O)O)C(=O)N[C@@H](Cc1c[nH]c2ccccc12)C(=O)N[C@@H](CCC(N)=O)C(N)=O)[C@@H](C)O)C(C)C)[C@@H](C)CC [P^BLV-ΔN] (Ac-SIIRLGDLQPLSQRVSTDWQ-NH2) | > 90 | lacked detectable inhibitory activity | – |
